Structures are written as SMILES.

For the experiment, the target named is T1, calcium channel (3H-nitrendipine binding, heart membranes) (Oryctolagus cuniculus, UniProt P15381).
T1 construct: from tissue; host or cells: rabbit heart membrane preparation
T1 sequence (P15381 whole entry, other chains not shown): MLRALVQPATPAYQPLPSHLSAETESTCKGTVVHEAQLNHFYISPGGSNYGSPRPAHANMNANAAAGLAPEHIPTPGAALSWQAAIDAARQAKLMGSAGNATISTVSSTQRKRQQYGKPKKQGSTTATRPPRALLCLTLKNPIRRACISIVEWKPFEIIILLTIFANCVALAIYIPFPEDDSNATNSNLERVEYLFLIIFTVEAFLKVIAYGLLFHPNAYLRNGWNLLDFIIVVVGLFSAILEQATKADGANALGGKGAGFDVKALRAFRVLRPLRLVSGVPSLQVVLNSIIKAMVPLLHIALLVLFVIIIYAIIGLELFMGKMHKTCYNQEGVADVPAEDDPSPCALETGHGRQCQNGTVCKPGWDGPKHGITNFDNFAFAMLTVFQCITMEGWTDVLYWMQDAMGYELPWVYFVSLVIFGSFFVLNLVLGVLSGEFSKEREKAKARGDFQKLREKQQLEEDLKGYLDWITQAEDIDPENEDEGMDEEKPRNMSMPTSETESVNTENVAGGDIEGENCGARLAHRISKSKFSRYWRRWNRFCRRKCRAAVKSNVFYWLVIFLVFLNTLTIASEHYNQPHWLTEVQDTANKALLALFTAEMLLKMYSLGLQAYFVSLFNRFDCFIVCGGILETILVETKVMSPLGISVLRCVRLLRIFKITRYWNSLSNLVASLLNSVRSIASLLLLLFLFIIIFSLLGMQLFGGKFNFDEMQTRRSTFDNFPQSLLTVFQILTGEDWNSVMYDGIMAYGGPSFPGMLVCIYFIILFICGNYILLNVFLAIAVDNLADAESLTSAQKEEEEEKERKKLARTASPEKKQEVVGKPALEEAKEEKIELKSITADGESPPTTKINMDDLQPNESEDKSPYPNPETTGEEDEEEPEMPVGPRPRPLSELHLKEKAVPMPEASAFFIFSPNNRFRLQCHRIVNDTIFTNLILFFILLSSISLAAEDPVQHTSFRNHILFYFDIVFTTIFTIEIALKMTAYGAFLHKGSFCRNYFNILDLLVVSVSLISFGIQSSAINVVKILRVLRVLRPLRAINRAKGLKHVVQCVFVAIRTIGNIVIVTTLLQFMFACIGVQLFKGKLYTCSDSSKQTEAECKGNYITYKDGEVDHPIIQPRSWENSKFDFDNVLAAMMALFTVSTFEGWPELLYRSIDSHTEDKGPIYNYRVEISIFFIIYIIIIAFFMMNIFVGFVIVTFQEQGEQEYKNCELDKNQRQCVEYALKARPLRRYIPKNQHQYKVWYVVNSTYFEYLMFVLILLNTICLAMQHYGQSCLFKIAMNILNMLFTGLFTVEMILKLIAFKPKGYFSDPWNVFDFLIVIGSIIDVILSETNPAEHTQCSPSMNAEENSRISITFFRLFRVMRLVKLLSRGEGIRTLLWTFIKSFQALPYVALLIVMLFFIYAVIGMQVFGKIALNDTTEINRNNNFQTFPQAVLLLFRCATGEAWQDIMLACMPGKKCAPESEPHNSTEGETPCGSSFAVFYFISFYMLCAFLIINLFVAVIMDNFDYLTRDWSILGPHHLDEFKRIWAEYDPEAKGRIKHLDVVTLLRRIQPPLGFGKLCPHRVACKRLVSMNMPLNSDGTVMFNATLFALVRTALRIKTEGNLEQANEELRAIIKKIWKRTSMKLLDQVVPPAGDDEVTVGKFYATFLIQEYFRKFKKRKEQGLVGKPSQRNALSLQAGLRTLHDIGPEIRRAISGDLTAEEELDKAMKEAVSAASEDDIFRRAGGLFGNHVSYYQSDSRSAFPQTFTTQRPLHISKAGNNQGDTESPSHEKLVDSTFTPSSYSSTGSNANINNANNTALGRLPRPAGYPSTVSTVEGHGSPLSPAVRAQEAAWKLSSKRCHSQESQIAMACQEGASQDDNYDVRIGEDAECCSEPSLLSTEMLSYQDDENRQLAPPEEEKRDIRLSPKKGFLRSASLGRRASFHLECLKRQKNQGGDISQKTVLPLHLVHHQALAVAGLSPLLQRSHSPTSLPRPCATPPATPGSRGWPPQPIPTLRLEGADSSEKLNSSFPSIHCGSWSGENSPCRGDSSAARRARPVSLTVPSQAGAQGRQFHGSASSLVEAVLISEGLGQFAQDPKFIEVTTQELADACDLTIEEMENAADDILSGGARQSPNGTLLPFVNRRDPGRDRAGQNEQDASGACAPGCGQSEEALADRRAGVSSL
T1 sequence (P13806 27-960 partner limits assumed, other chains not shown): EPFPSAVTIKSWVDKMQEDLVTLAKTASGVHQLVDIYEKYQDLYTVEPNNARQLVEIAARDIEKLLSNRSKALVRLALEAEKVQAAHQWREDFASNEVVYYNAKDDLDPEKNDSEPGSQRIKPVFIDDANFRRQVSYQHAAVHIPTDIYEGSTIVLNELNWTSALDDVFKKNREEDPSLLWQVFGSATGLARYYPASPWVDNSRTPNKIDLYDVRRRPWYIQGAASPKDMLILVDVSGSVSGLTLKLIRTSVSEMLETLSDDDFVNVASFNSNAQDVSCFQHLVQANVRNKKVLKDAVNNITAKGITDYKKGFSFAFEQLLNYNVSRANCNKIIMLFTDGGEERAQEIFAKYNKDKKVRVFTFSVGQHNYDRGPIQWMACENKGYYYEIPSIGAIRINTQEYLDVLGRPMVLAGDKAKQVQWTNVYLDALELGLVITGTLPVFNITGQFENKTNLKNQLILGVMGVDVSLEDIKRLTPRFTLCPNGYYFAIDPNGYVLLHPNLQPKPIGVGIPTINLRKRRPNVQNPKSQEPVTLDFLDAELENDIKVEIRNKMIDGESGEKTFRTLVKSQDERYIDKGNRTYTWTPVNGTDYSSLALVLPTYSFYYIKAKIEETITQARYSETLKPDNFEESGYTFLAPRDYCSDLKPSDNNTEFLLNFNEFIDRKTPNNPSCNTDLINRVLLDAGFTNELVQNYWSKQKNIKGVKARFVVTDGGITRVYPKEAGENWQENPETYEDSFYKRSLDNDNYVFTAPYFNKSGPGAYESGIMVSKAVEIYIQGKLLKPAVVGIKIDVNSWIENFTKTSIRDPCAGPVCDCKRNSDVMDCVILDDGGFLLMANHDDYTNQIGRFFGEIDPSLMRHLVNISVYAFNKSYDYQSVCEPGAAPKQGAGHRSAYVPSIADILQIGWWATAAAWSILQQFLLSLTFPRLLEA
T1 sequence (P13806 961-1106 partner limits assumed, other chains not shown): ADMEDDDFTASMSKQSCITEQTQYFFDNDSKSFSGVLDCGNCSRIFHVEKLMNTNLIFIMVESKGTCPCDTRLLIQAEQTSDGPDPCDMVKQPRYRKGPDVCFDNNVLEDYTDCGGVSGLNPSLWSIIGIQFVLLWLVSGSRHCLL
The experiment can be described thus: Assay for inhibition of nitrendipine binding (calcium channel antagonist activity). As to conditions: 3H-nitrendipine 0.05-0.50 nM, rabbit heart membranes, 90 minutes at 4° C. As for the experimental part:
Female, New Zealand white rabbits (1-2 kg) are sacrificed by cervical dislocation, and the heart is immediately removed, cleaned and chopped into small pieces. The tissue is homogenized in 5×times volume of 0.05M Hepes buffer, pH 7.4. The homogenate is centrifuged at 4000 g for 10 minutes, and the supernatant is re-centrifuged at 42,000×g for 90 minutes. The resulting membrane pellet is re-suspended (0.7 ml/g weight) in 0.05M Hepes, pH 7.4 and stored at […] until used. Each tube of the binding assay contains ^3H-nitrendipine (0.05-0.50 nM), buffer, membranes (0.10 ml), and test compound in a total volume of 1.0 ml. After 90 minutes at 4° C., the bound nitrendipine is separated from the unbound by filtration on Whatman GF/C filters. After rinsing, the filters are dried and counted in a liquid scintillation counter.
Non-specific binding of ^3H-nitrendipine (that amount bound in the presence of excess unlabelled nitrendipine) is subtracted from the total bound to obtain specifically bound radiolabeled nitrendipine. The amount of specifically bound nitrendipine in the presence of a test compound is compared to that amount bound in the absence of a compound. A percent displacement (or inhibition) can then be calculated.
On to `CCOC(=O)C1=C(c2cccnc2)NC2=C(C1c1cccc(C(F)(F)F)c1F)S(=O)(=O)CCCC2` (stereo not drawn) [Compound 23, Thiepino[3,2-b]pyridine-3-carboxylic acid, 4-[2-fluoro-3-(trifluoromethyl)phenyl]-1,4,6,7,8,9-hexahydro-2-(3-pyridinyl)-, ethyl ester, 5,5-dioxide], for which the IC50 (commonly the concentration that inhibits the measured activity by half) came out at 2000 nM.
With `CC1=C(C(=O)OCCN(C)Cc2ccsc2)C(c2ccccc2Cl)C2=C(CCCCS2(=O)=O)N1` (stereo not drawn) [Compound 24, Thiepino[3,2-b]pyridine-3-carboxylic acid, 4-(2-chlorophenyl)-1,4,6,7,8,9-hexahydro-2-methyl-, 2-[methyl(3-thienylmethyl)amino]ethyl ester, 5,5-dioxide], the IC50 came to 149 nM.
As for `CN(CCOC(=O)C1=C(c2ccccc2)NC2=C(C1c1cccc(Cl)c1)S(=O)(=O)CCCC2)Cc1ccccc1` (stereo not drawn) [Compound 4, Thiepino[3,2-b]pyridine-3-carboxylic acid, 4-(3-chlorophenyl)-1,4,6,7,8,9-hexahydro-2-phenyl-, 2-[methyl(phenylmethyl)amino]ethyl ester, 5,5-dioxide], the IC50 was determined as 192 nM.
With `CC1=C(C(=O)OCCN(C)Cc2ccsc2)C(c2cccc([N+](=O)[O-])c2)C2=C(CCCCS2(=O)=O)N1` (stereo not drawn) [Compound 26, Thiepino[3,2-b]pyridine-3-carboxylic acid, 1,4,6,7,8,9-hexahydro-2-methyl-4-(3-nitrophenyl)-, 2-[methyl(3-thienylmethyl)amino]ethyl ester, 5,5-dioxide], the 50% inhibitory concentration (IC50) was found to be 51 nM.
Turning to `CCOC(=O)C1=C(c2cccs2)NC2=C(C1c1ccccc1Cl)S(=O)(=O)CCCC2` (stereo not drawn) [Compound 15, Thiepino[3,2-b]pyridine-3-carboxylic acid, 4-(2-chlorophenyl)-1,4,6,7,8,9-hexahydro-2-(2-thienyl)-, ethyl ester, 5,5-dioxide], the IC50 came out at 2500 nM.
In the case of `CCOC(=O)C1=C(c2ccccc2)NC2=C(C1c1cccc(Cl)c1Cl)S(=O)(=O)CCCC2` (stereo not drawn) [Compound 2, Thiepino[3,2-b]pyridine-3-carboxylic acid, 4-(2,3-dichlorophenyl)-1,4,6,7,8,9-hexahydro-2-phenyl-, ethyl ester, 5,5-dioxide], the 50% inhibitory concentration (IC50) is 115 nM.

The values are drawn from US6420383B1, “Thiepino[3,2-b]dihydropyridines and related compositions and methods” (Ortho-McNeil Pharmaceutical, Inc., priority 2000, dated 2002).
